In patent publication US12076305B2, “Compositions comprising a conjugate of quinic acid with caffeic acid, cosmetic and therapeutic uses” (CALSCIENCE INTERNATIONAL LTD, priority 2013, dated 2024):

Tests used:
Sirtuin 3 (SIRT3) = experiment: Taqman Real Time-PCR expression of Sirtuin 3 in HFFs with/without H2O2 stress; format: cell-based, Human; conditions: for ddct (−2.079) (SIRT3) / Relative Expression of SIRT3 / dCt (SIRT3) / SIRT3 (Ct): 1/1000 dilution; for dCt (SIRT3): vs HPRT
Description: (§1) The following results shown in FIGS. 2 to 7 relate to the analysis of Senescence tests on compound 2066 (1,5-dicaffeoylquinic acid or 1,5-DCQA). The experiments were conducted using Human Foreskin Fibroblasts (HFFs).
(§2) In the following experiments, HFFs were challenged for a period of two hours with 150 μM hydrogen peroxide (H2O2), to stimulate premature senescence in the presence and absence of 1,5-Dicaffeoylquinic acid (1/1000 dilution), and subsequently assayed by Taqman Real Time-PCR for the expression of key senescence associated genes.
(§3) These genes are involved in cell cycle regulation and mitochondrial stress responses. Challenge with a near lethal level of oxidant stress typically induces an increase in SIRT2 and decrease in SIRT3 expression. […] This is indicative of each having a potential for stimulating cell proliferation in the absence of oxidant challenge.
(§4) The results shown in Table 2 and FIGS. 2 to 7 were generated using the polymerase chain reaction (PCR), wherein the dCt and ddCT values are results used in statistical analysis. The abbreviation dCt relates to “delta cycle threshold” and the abbreviation ddCt relates to “delta delta cycle threshold”. In these experiments, HPRT (hypoxanthine phosphoribosyltransferase, a protein from the HPRT-1 gene) was used as a control.

p16 = experiment: Taqman Real Time-PCR expression of p16 in HFFs with/without H2O2 stress-induced premature senescence; format: cell-based, Human; conditions: for ddct (1.275) (P16) / Relative Expression of P16 / dCt (P16) / P16 (Ct): 1/1000 dilution; for dCt (P16): vs HPRT
Description: as §1, §2, §4

MMP-9 = experiment: Western blot of LNCaP cell extracts probed for MMP-9; format: cell-based; conditions: LNCaP cells; 24 hours; at 0.1 μM to 100 μM
Description: (§5) Lanes 1 and 2 of the Western blot show the expression levels Hela control lysates comprising TNF-alpha (TNFα), in stimulated and unstimulated conditions. Lanes 3 and 4 show the results of LNCaP cell extracts, in stimulated and unstimulated conditions. In this case, the vehicle used is ethanol. Lanes 5 to 10 show the results of LNCaP cell extracts incubated for 24 hours in 0.1, 1, 3, 10, 30, 100 μM of 1,5-DCQA, respectively. Tubulin (50kD) was used as a loading control.

Pp65 (ser 536) = experiment: Western blot of LNCaP cell extracts probed for Pp65 (ser 536); format: cell-based; conditions: LNCaP cells; 24 hours; 0.1, 1, 3, 10, 30, 100 μM
Description: as §5

Sirtuin 2 (SIRT2) = experiment: Taqman Real Time-PCR expression of Sirtuin 2 in HFFs with/without H2O2 stress; format: cell-based, Human; conditions: for ddct (−0.016) (SIRT2) / Relative Expression of SIRT2 / dCt (SIRT2) / SIRT2 (Ct): 1/1000 dilution; for dCt (SIRT2): vs HPRT
Description: as §1, §2, §3, §4

p21 = experiment: Taqman Real Time-PCR expression of p21 in HFFs with/without H2O2 stress; format: cell-based, Human; conditions: for ddct (−3.761) (P21) / Relative Expression of P21 / dCt (P21) / P21 (Ct): 1/1000 dilution; for dCt (P21): vs HPRT
Description: as §1, §2, §4

XRCC5 = experiment: Taqman Real Time-PCR expression of XRCC5 in HFFs with/without H2O2 stress; format: cell-based, Human; conditions: for ddct (−1.292) (XRCC5) / Relative Expression of XRCC5 / dCt (XRCC5) / XRCC5 (Ct): 1/1000 dilution; for dCt (XRCC5): vs HPRT
Description: as §1, §2
XRCC5 is a double strand break repair protein.
as §4

hPOT1 = experiment: Taqman Real Time-PCR expression of hPOT1 in HFFs with/without H2O2 stress; format: cell-based, Human; conditions: for ddct (−1.835) (hPOT1) / Relative Expression of hPOT1 / dct (hPOT1) / HPOT1 (Ct): 1/1000 dilution; for dct (hPOT1): vs HPRT
Description: as §1, §2
These findings are supported by an analysis of the Protection of Telomeres gene (POT 1).
as §4

p65 = experiment: Western blot of LNCaP cell extracts probed for p65; format: cell-based; conditions: LNCaP cells; 24 hours; 0.1, 1, 3, 10, 30, 100 μM
Description: as §5

[1] = test system: Human Foreskin Fibroblasts (HFFs); experiment: WST-1 Cell Proliferation Assay in HFFs; format: cell-based; conditions: 1/1000 and 2/1000 dilutions
From the text: The WST-1 Cell Proliferation Assay provides a sensitive and accurate assay for cell proliferation and cytotoxicity (cell viability). The WST assay is based on the cleavage of the tetrazolium salt WST-1 to formazan by cellular mitochondrial dehydrogenases. Expansion in the number of viable cells results in an increase in the overall activity of the mitochondrial dehydrogenases in the sample. The augmentation in enzyme activity results in an increase in the amount of formazan dye formed. The formazan dye produced by viable cells was quantified by a multi-well spectrophotometer by measuring the absorbance of the dye solution at 440 nm. The compound provided was tested in the WST assay over a range of dilutions. […] The results of the assay show the standard deviation (SD) for 1,5-DCQA (2066) and the control, and the mean values for 1,5-DCQA (2066) and the control.

[2] = HFFs, & stress (150 μM H2O2, two hours)
[3] = & stress (150 μM H2O2, two hours)

## O=C(/C=C/c1ccc(O)c(O)c1)O[C@@H]1C[C@](OC(=O)/C=C/c2ccc(O)c(O)c2)(C(=O)O)C[C@@H](O)[C@H]1O [1,5-DCQA, 1,5-dicaffeoylquinic acid]
Sirtuin 3 (SIRT3); HFFs, & stress (150 μM H2O2)
  ddct (−2.079) (SIRT3): −0.120
  dCt (SIRT3): 1.959
Sirtuin 3 (SIRT3); HFFs, & stress (150 μM H2O2), media = 1.000, stress alone 0.794
  Relative Expression of SIRT3: 1.086
Sirtuin 3 (SIRT3); [2]
  SIRT3 (Ct): 29.3
Sirtuin 3 (SIRT3); HFFs, no stress
  SIRT3 (Ct): 28.56
  ddct (−2.079) (SIRT3): 0.148
  dCt (SIRT3): 2.227
Sirtuin 3 (SIRT3); HFFs, no stress, media = 1.000
  Relative Expression of SIRT3: 0.903
Sirtuin 3 (SIRT3); HFFs, following oxidant challenge
  change in SIRT3 expression: increase
Sirtuin 3 (SIRT3); senescent fibroblasts
  up regulation of SIRT3 expression: approximately 36%
p16; 150 μM H2O2
  protection of p16 expression from oxidant challenge: excellent protection from oxidant challenge
p16; & stress (150 μM H2O2)
  ddct (1.275) (P16): −0.519
  dCt (P16): 0.756
p16; & stress (150 μM H2O2), media = 1.000, stress alone 3.151
  Relative Expression of P16: 1.433
p16; [3]
  P16 (Ct): 28.09
p16; no stress
  P16 (Ct): 27.66
  ddct (1.275) (P16): 0.050
  dCt (P16): 1.325
p16; no stress, media = 1.000
  Relative Expression of P16: 0.966
p16; no H2O2
  effect on p16 expression in untreated cells: no stress effect
MMP-9
  inhibition of MMP-9: clearly demonstrated
Pp65 (ser 536)
  inhibition of the phosphorylation of p65: does inhibit
Sirtuin 2 (SIRT2); HFFs, & stress (150 μM H2O2)
  ddct (−0.016) (SIRT2): 0.371
  dCt (SIRT2): 0.387
Sirtuin 2 (SIRT2); HFFs, & stress (150 μM H2O2), media = 1.000, stress alone 0.762
  Relative Expression of SIRT2: 0.773
Sirtuin 2 (SIRT2); [2]
  SIRT2 (Ct): 27.72
Sirtuin 2 (SIRT2); HFFs, no stress
  SIRT2 (Ct): 27.16
  ddct (−0.016) (SIRT2): 0.817
  dCt (SIRT2): 0.833
Sirtuin 2 (SIRT2); HFFs, no stress, media = 1.000
  Relative Expression of SIRT2: 0.568
Sirtuin 2 (SIRT2); HFFs, without stress
  change in SIRT2 expression: significant decrease
Sirtuin 2 (SIRT2); normal fibroblasts
  down regulation of SIRT2 expression: approximately 52%
p21; 150 μM H2O2
  p21 expression levels following stress: substantially unchanged
p21; & stress (150 μM H2O2)
  ddct (−3.761) (P21): −2.263
  dCt (P21): −6.024
p21; & stress (150 μM H2O2), media = 1.000, stress alone 4.519
  Relative Expression of P21: 4.801
p21; [3]
  P21 (Ct): 21.31
p21; no stress
  P21 (Ct): 22.4
  ddct (−3.761) (P21): −0.167
  dCt (P21): −3.928
p21; no stress, media = 1.000
  Relative Expression of P21: 1.122
XRCC5
  induction of DNA breaks (from XRCC5 expression): does not induce DNA breaks
XRCC5; & stress (150 μM H2O2)
  ddct (−1.292) (XRCC5): −0.141
  dCt (XRCC5): −1.433
XRCC5; & stress (150 μM H2O2), media = 1.000, stress alone 2.237
  Relative Expression of XRCC5: 1.103
XRCC5; [3]
  XRCC5 (Ct): 25.9
XRCC5; no stress
  XRCC5 (Ct): 25.48
  ddct (−1.292) (XRCC5): 0.444
  dCt (XRCC5): −0.848
XRCC5; no stress, media = 1.000
  Relative Expression of XRCC5: 0.735
XRCC5; with and without 150 μM H2O2
  expression of XRCC5 in comparison with the control data set: substantially unaltered
hPOT1; 150 μM H2O2
  effect on hPOT1 expression against oxidant challenge: protective effect
hPOT1; & stress (150 μM H2O2)
  ddct (−1.835) (hPOT1): 0.405
  dct (hPOT1): 2.240
hPOT1; & stress (150 μM H2O2), media = 1.000, stress alone 1.625
  Relative Expression of hPOT1: 0.755
hPOT1; [3]
  HPOT1 (Ct): 29.5758
hPOT1; no stress
  HPOT1 (Ct): 29.47
  ddct (−1.835) (hPOT1): 1.306
  dct (hPOT1): 3.141
hPOT1; no stress, media = 1.000
  Relative Expression of hPOT1: 0.404
p65
  inhibition of the expression of p65: does not inhibit
[1]
  cell viability (WST-1): beneficial to cell viability
